Several values for one entry are separate records, joined by “and”; a condition that tells them apart may be missing. Equal values may be shown once. ± gives the uncertainty stated by the source.
Assay: xn = mol fraction of the nth substance listed

ClC(Cl)(Cl)Cl + C[N+](=O)[O-]
Conditions | viscosity [mPa·s]
298 K, 101.3 kPa, x1 = 0.0959 | 0.636 ± 0.008
298 K, 101.3 kPa, x1 = 0.1961 | 0.655 ± 0.008
298 K, 101.3 kPa, x1 = 0.3609 | 0.702 ± 0.008
298 K, 101.3 kPa, x1 = 0.5088 | 0.751 ± 0.009
298 K, 101.3 kPa, x1 = 0.7487 | 0.805 ± 0.009
298.15 K, 101 kPa, x2 = 0.1023 | 0.884 ± 0.0087
298.15 K, 101 kPa, x2 = 0.1662 | 0.8265 ± 0.083
298.15 K, 101 kPa, x2 = 0.2011 | 0.8405 ± 0.0084
298.15 K, 101 kPa, x2 = 0.2958 | 0.8074 ± 0.0082
298.15 K, 101 kPa, x2 = 0.3102 | 0.7692 ± 0.078
298.15 K, 101 kPa, x2 = 0.3946 | 0.7776 ± 0.008
298.15 K, 101 kPa, x2 = 0.4351 | 0.7285 ± 0.073
298.15 K, 101 kPa, x2 = 0.4978 | 0.7481 ± 0.0078
298.15 K, 101 kPa, x2 = 0.5452 | 0.6969 ± 0.07
298.15 K, 101 kPa, x2 = 0.6013 | 0.7175 ± 0.0076
298.15 K, 101 kPa, x2 = 0.6424 | 0.6735 ± 0.068
298.15 K, 101 kPa, x2 = 0.701 | 0.6857 ± 0.0075
298.15 K, 101 kPa, x2 = 0.7297 | 0.6556 ± 0.066
298.15 K, 101 kPa, x2 = 0.799 | 0.6627 ± 0.0073
298.15 K, 101 kPa, x2 = 0.8077 | 0.6427 ± 0.065
298.15 K, 101 kPa, x2 = 0.878 | 0.6339 ± 0.064
298.15 K, 101 kPa, x2 = 0.9009 | 0.6481 ± 0.0073
298.15 K, 101 kPa, x2 = 0.9419 | 0.6295 ± 0.064
303.15 K, 101 kPa, x2 = 0.1 | 0.7718 ± 0.021
303.15 K, 101 kPa, x2 = 0.1023 | 0.8319 ± 0.0083
303.15 K, 101 kPa, x2 = 0.2 | 0.7427 ± 0.02
303.15 K, 101 kPa, x2 = 0.2011 | 0.7922 ± 0.0081
303.15 K, 101 kPa, x2 = 0.2958 | 0.7599 ± 0.0079
303.15 K, 101 kPa, x2 = 0.3 | 0.7058 ± 0.019
303.15 K, 101 kPa, x2 = 0.3946 | 0.735 ± 0.0078
303.15 K, 101 kPa, x2 = 0.4 | 0.6831 ± 0.018
303.15 K, 101 kPa, x2 = 0.4978 | 0.7052 ± 0.0076
303.15 K, 101 kPa, x2 = 0.5 | 0.6569 ± 0.017
303.15 K, 101 kPa, x2 = 0.6 | 0.6415 ± 0.017
303.15 K, 101 kPa, x2 = 0.6013 | 0.6783 ± 0.0074
303.15 K, 101 kPa, x2 = 0.7 | 0.624 ± 0.017
303.15 K, 101 kPa, x2 = 0.701 | 0.6511 ± 0.0073
303.15 K, 101 kPa, x2 = 0.799 | 0.6308 ± 0.0072
303.15 K, 101 kPa, x2 = 0.8 | 0.6126 ± 0.016
303.15 K, 101 kPa, x2 = 0.9 | 0.6123 ± 0.016
303.15 K, 101 kPa, x2 = 0.9009 | 0.6177 ± 0.0071
308.15 K, 101 kPa, x2 = 0.1 | 0.7423 ± 0.02
308.15 K, 101 kPa, x2 = 0.1023 | 0.7884 ± 0.0081
308.15 K, 101 kPa, x2 = 0.2 | 0.6974 ± 0.018
308.15 K, 101 kPa, x2 = 0.2011 | 0.7475 ± 0.0079
308.15 K, 101 kPa, x2 = 0.2958 | 0.7146 ± 0.0077
308.15 K, 101 kPa, x2 = 0.3 | 0.668 ± 0.018
308.15 K, 101 kPa, x2 = 0.3946 | 0.6899 ± 0.0075
308.15 K, 101 kPa, x2 = 0.4 | 0.6479 ± 0.017
308.15 K, 101 kPa, x2 = 0.4978 | 0.6672 ± 0.0074
308.15 K, 101 kPa, x2 = 0.5 | 0.626 ± 0.017
308.15 K, 101 kPa, x2 = 0.6 | 0.6063 ± 0.016
308.15 K, 101 kPa, x2 = 0.6013 | 0.6432 ± 0.0072
308.15 K, 101 kPa, x2 = 0.7 | 0.5927 ± 0.016
308.15 K, 101 kPa, x2 = 0.701 | 0.6169 ± 0.0071
308.15 K, 101 kPa, x2 = 0.799 | 0.5981 ± 0.007
308.15 K, 101 kPa, x2 = 0.8 | 0.5834 ± 0.015
308.15 K, 101 kPa, x2 = 0.9 | 0.5735 ± 0.015
308.15 K, 101 kPa, x2 = 0.9009 | 0.5901 ± 0.0069
313.15 K, 101 kPa, x2 = 0.1023 | 0.7324 ± 0.0079
313.15 K, 101 kPa, x2 = 0.2011 | 0.6952 ± 0.0076
313.15 K, 101 kPa, x2 = 0.2958 | 0.674 ± 0.0074
313.15 K, 101 kPa, x2 = 0.3946 | 0.648 ± 0.0073
313.15 K, 101 kPa, x2 = 0.4978 | 0.6232 ± 0.0072
313.15 K, 101 kPa, x2 = 0.6013 | 0.6053 ± 0.0071
313.15 K, 101 kPa, x2 = 0.701 | 0.5841 ± 0.0069
313.15 K, 101 kPa, x2 = 0.799 | 0.5675 ± 0.0068
313.15 K, 101 kPa, x2 = 0.9009 | 0.5621 ± 0.0068
318 K, 101.3 kPa, x1 = 0.0897 | 0.5256 ± 0.02
318 K, 101.3 kPa, x1 = 0.1941 | 0.5442 ± 0.021
318 K, 101.3 kPa, x1 = 0.3589 | 0.5822 ± 0.022
318 K, 101.3 kPa, x1 = 0.5073 | 0.6189 ± 0.023
318 K, 101.3 kPa, x1 = 0.7644 | 0.6719 ± 0.025
318.15 K, 101 kPa, x2 = 0.1 | 0.6487 ± 0.017
318.15 K, 101 kPa, x2 = 0.2 | 0.6201 ± 0.017
318.15 K, 101 kPa, x2 = 0.3 | 0.5962 ± 0.016
318.15 K, 101 kPa, x2 = 0.4 | 0.5782 ± 0.015
318.15 K, 101 kPa, x2 = 0.5 | 0.5609 ± 0.015
318.15 K, 101 kPa, x2 = 0.6 | 0.546 ± 0.015
318.15 K, 101 kPa, x2 = 0.7 | 0.5328 ± 0.014
318.15 K, 101 kPa, x2 = 0.8 | 0.5246 ± 0.014
318.15 K, 101 kPa, x2 = 0.9 | 0.5207 ± 0.014

CCc1ccc(O)cc1 + C[N+](C)(C)CCO.[Cl-]
298.15 K, 101.33 kPa
Conditions | viscosity
x1 = 0.7 | 143.3 ± 54 mPa·s
x1 = 0.8 | 84.18 ± 26 mPa·s and 62.12 ± 16 mPa·s and 53.08 ± 13 mPa·s
x1 = 0.9 | 49.12 ± 11 mPa·s
